Measured values reported in article PMC7846792, “Perception of a divergent family of phytocytokines by the Arabidopsis receptor kinase MIK2” (Nature Communications, 2021).
No end group written: not given here.

Test system: A. thaliana seedlings
Assay: Seedling growth inhibition (fresh weight)
Type: in vivo, Arabidopsis thaliana
Details: mock mean = 1
Procedure: Four-day-old seedlings growing on MS plates were transferred individually into separate wells of transparent 48-well tissue culture plates (Greiner Bio-One) containing 500 μL of liquid MS media with/without elicitor addition. The plates were then transferred back to the growth conditions for an additional 10 days before seedlings were blot-dried and weighed.

ETPPSRSRRGGGG [SCOOP1]
Seedling fresh weight (Fig3C), relative to mock (Col-0, 1 μM, replicate 1): 0.767 | Seedling fresh weight (Fig3C), relative to mock (Col-0, 1 μM, replicate 2): 0.7214 | Seedling fresh weight (Fig3C), relative to mock (Col-0, 1 μM, replicate 3): 0.5418 | Seedling fresh weight (Fig3C), relative to mock (Col-0, 1 μM, replicate 4): 0.6909 | Seedling fresh weight (Fig3C), relative to mock (Col-0, 1 μM, replicate 5): 0.3379 | Seedling fresh weight (Fig3C), relative to mock (Col-0, 1 μM, replicate 6): 0.5266 | Seedling fresh weight (Fig3C), relative to mock (Col-0, 1 μM, replicate 7): 0.5662 | Seedling fresh weight (Fig3C), relative to mock (Col-0, 1 μM, replicate 8): 0.6453 | Seedling fresh weight (Fig3C), relative to mock (Col-0, 1 μM, replicate 9): 0.5753 | Seedling fresh weight (Fig3C), relative to mock (Col-0, 1 μM, replicate 10): 0.5996 | Seedling fresh weight (Fig3C), relative to mock (Col-0, 1 μM, replicate 11): 0.6118 | Seedling fresh weight (Fig3C), relative to mock (Col-0, 1 μM, replicate 12): 0.4961 | Seedling fresh weight (Fig3C), relative to mock (Col-0, 10 μM, replicate 1): 0.2426 | Seedling fresh weight (Fig3C), relative to mock (Col-0, 10 μM, replicate 2): 0.2002 | Seedling fresh weight (Fig3C), relative to mock (Col-0, 10 μM, replicate 3): 0.1668 | Seedling fresh weight (Fig3C), relative to mock (Col-0, 10 μM, replicate 4): 0.1698 | Seedling fresh weight (Fig3C), relative to mock (Col-0, 10 μM, replicate 5): 0.06065 | Seedling fresh weight (Fig3C), relative to mock (Col-0, 10 μM, replicate 6): 0.1729 | Seedling fresh weight (Fig3C), relative to mock (Col-0, 10 μM, replicate 7): 0.1759 | Seedling fresh weight (Fig3C), relative to mock (Col-0, 10 μM, replicate 8): 0.2305 | Seedling fresh weight (Fig3C), relative to mock (Col-0, 10 μM, replicate 9): 0.2092 | Seedling fresh weight (Fig3C), relative to mock (Col-0, 10 μM, replicate 10): 0.1607 | Seedling fresh weight (Fig3C), relative to mock (Col-0, 10 μM, replicate 11): 0.2244 | Seedling fresh weight (Fig3C), relative to mock (Col-0, 10 μM, replicate 12): 0.2032 | Seedling fresh weight (Fig3C), relative to mock (mik2-1, 1 μM, replicate 1): 1.15 | Seedling fresh weight (Fig3C), relative to mock (mik2-1, 1 μM, replicate 2): 1.076 | Seedling fresh weight (Fig3C), relative to mock (mik2-1, 1 μM, replicate 3): 1.026 | Seedling fresh weight (Fig3C), relative to mock (mik2-1, 1 μM, replicate 4): 1.019 | Seedling fresh weight (Fig3C), relative to mock (mik2-1, 1 μM, replicate 5): 1.076 | Seedling fresh weight (Fig3C), relative to mock (mik2-1, 1 μM, replicate 6): 0.9888 | Seedling fresh weight (Fig3C), relative to mock (mik2-1, 1 μM, replicate 7): 1.049 | Seedling fresh weight (Fig3C), relative to mock (mik2-1, 1 μM, replicate 8): 1.026 | Seedling fresh weight (Fig3C), relative to mock (mik2-1, 1 μM, replicate 9): 0.9619 | Seedling fresh weight (Fig3C), relative to mock (mik2-1, 1 μM, replicate 10): 0.9215 | Seedling fresh weight (Fig3C), relative to mock (mik2-1, 1 μM, replicate 11): 0.9619 | Seedling fresh weight (Fig3C), relative to mock (mik2-1, 1 μM, replicate 12): 0.9922 | Seedling fresh weight (Fig3C), relative to mock (mik2-1, 10 μM, replicate 1): 1.089 | Seedling fresh weight (Fig3C), relative to mock (mik2-1, 10 μM, replicate 2): 0.9298 | Seedling fresh weight (Fig3C), relative to mock (mik2-1, 10 μM, replicate 3): 0.9231 | Seedling fresh weight (Fig3C), relative to mock (mik2-1, 10 μM, replicate 4): 0.9738 | Seedling fresh weight (Fig3C), relative to mock (mik2-1, 10 μM, replicate 5): 0.9332 | Seedling fresh weight (Fig3C), relative to mock (mik2-1, 10 μM, replicate 6): 0.9028 | Seedling fresh weight (Fig3C), relative to mock (mik2-1, 10 μM, replicate 7): 1.008 | Seedling fresh weight (Fig3C), relative to mock (mik2-1, 10 μM, replicate 8): 0.9704 | Seedling fresh weight (Fig3C), relative to mock (mik2-1, 10 μM, replicate 9): 1.085 | Seedling fresh weight (Fig3C), relative to mock (mik2-1, 10 μM, replicate 10): 1.031 | Seedling fresh weight (Fig3C), relative to mock (mik2-1, 10 μM, replicate 11): 0.9569 | Seedling fresh weight (Fig3C), relative to mock (mik2-1, 10 μM, replicate 12): 0.967
